Measured values as given in paper PMC5218480 (PLoS ONE, 2017).

Test system: MV-4-11 cells
Test: Gene expression microarray analysis (Affymetrix PrimeView) and GSEA
Assay type: cell-based, human
Parameters: RFU PODN (11730768_x_at) / Fold change /veh PODN (11730768_x_at) / RFU LINC00158 (11744669_a_at) / Fold change /veh LINC00158 (11744669_a_at) / RFU DUSP10 (11751237_a_at) / Fold change /veh DUSP10 (11751237_a_at) / RFU ID3 (11757404_x_at) / Fold change /veh ID3 (11757404_x_at) / RFU PLEKHG5 (11737974_s_at) / Fold change /veh PLEKHG5 (11737974_s_at) / RFU LRRC4B (11730491_at) / Fold change /veh LRRC4B (11730491_at) / RFU GIMAP4 (11747438_a_at) / Fold change /veh GIMAP4 (11747438_a_at) / RFU KRT8 (11758183_x_at) / Fold change /veh KRT8 (11758183_x_at) / RFU CNN1 (11734310_a_at) / Fold change /veh CNN1 (11734310_a_at) / RFU VPS37D (11726825_at) / Fold change /veh VPS37D (11726825_at) / RFU C10orf10 (11716522_x_at) / Fold change /veh C10orf10 (11716522_x_at) / RFU KIR2DL2 /// KIR2DL4 /// KIR2DL5A /// KIR2DL5B /// KIR2DS1 /// KIR2DS2 /// KIR2DS3 /// KIR2DS4 /// KIR3DL3 /// KIR3DL3 /// KIR3DS1 (11738374_at) / Fold change /veh KIR2DL2 /// KIR2DL4 /// KIR2DL5A /// KIR2DL5B /// KIR2DS1 /// KIR2DS2 /// KIR2DS3 /// KIR2DS4 /// KIR3DL3 /// KIR3DL3 /// KIR3DS1 (11738374_at) / RFU C1QL1 (11718748_at) / Fold change /veh C1QL1 (11718748_at) / RFU TMPRSS4 (11747572_a_at) / Fold change /veh TMPRSS4 (11747572_a_at) / RFU HAMP (11756126_x_at) / Fold change /veh HAMP (11756126_x_at) / RFU RNFT2 (11725882_a_at) / Fold change /veh RNFT2 (11725882_a_at) / RFU NR4A2 (11747474_a_at) / Fold change /veh NR4A2 (11747474_a_at) / RFU ABCC12 (11746883_a_at) / Fold change /veh ABCC12 (11746883_a_at) / RFU TMEM136 (11760407_x_at) / Fold change /veh TMEM136 (11760407_x_at) / RFU CLDN22 /// WWC2 (11732394_at) / Fold change /veh CLDN22 /// WWC2 (11732394_at) / RFU HLA-DPB1 (11760878_x_at) / Fold change /veh HLA-DPB1 (11760878_x_at) / RFU SPINT1 (11716480_a_at) / Fold change /veh SPINT1 (11716480_a_at) / RFU GAP43 (11754022_s_at) / Fold change /veh GAP43 (11754022_s_at) / RFU A4GNT (11735810_at) / Fold change /veh A4GNT (11735810_at) / RFU PRB3 (11715151_x_at) / Fold change /veh PRB3 (11715151_x_at) / RFU TUBB4B (11761932_at) / Fold change /veh TUBB4B (11761932_at) / RFU CAPN14 (11732068_a_at) / Fold change /veh CAPN14 (11732068_a_at) / RFU TMCC2 (11721928_a_at) / Fold change /veh TMCC2 (11721928_a_at) / RFU IRGQ (11745062_a_at) / Fold change /veh IRGQ (11745062_a_at) / RFU FAM174B (11720279_a_at) / Fold change /veh FAM174B (11720279_a_at) / RFU TMPRSS4 (11748680_a_at) / Fold change /veh TMPRSS4 (11748680_a_at) / RFU FAM212B (11763350_a_at) / Fold change /veh FAM212B (11763350_a_at) / RFU PLEKHG5 (11743358_a_at) / Fold change /veh PLEKHG5 (11743358_a_at) / RFU ZSCAN30 (11745921_a_at) / Fold change /veh ZSCAN30 (11745921_a_at) / RFU CMKLR1 (11741424_a_at) / Fold change /veh CMKLR1 (11741424_a_at) / RFU LOC101060620 /// MAPK8IP1 (11723275_at) / Fold change /veh LOC101060620 /// MAPK8IP1 (11723275_at) / RFU SPTSSB (11747773_x_at) / Fold change /veh SPTSSB (11747773_x_at) / RFU PRSS12 (11739890_at) / Fold change /veh PRSS12 (11739890_at) / RFU BIN1 (11741810_x_at) / Fold change /veh BIN1 (11741810_x_at) / RFU WNT11 (11732464_a_at) / Fold change /veh WNT11 (11732464_a_at) / RFU C10orf10 (11716521_a_at) / Fold change /veh C10orf10 (11716521_a_at) / RFU C5orf56 (11738089_at) / Fold change /veh C5orf56 (11738089_at) / RFU CYB561 (11721691_x_at) / Fold change /veh CYB561 (11721691_x_at) / RFU ANKRD19P (11752326_a_at) / Fold change /veh ANKRD19P (11752326_a_at) / RFU OR2T12 /// OR2T33 /// OR2T8 (11738714_s_at) / Fold change /veh OR2T12 /// OR2T33 /// OR2T8 (11738714_s_at) / RFU VCAN (11748164_a_at) / Fold change /veh VCAN (11748164_a_at) / RFU JSRP1 (11732532_at) / Fold change /veh JSRP1 (11732532_at) / RFU KRTAP10-11 (11738290_x_at) / Fold change /veh KRTAP10-11 (11738290_x_at) / RFU MYO3A (11730013_a_at) / Fold change /veh MYO3A (11730013_a_at) / RFU EBF3 (11725865_a_at) / Fold change /veh EBF3 (11725865_a_at) / RFU CAMK2N1 (11719241_x_at) / Fold change /veh CAMK2N1 (11719241_x_at) / RFU C5orf56 (11738088_a_at) / Fold change /veh C5orf56 (11738088_a_at) / RFU OLFML3 (11715873_a_at) / Fold change /veh OLFML3 (11715873_a_at) / RFU LOC100653217 /// NTM (11731650_a_at) / Fold change /veh LOC100653217 /// NTM (11731650_a_at) / RFU MAPK11 (11762145_a_at) / Fold change /veh MAPK11 (11762145_a_at) / RFU FIZ1 (11724087_x_at) / Fold change /veh FIZ1 (11724087_x_at) / RFU OASL (11726364_x_at) / Fold change /veh OASL (11726364_x_at) / RFU SOX15 (11748057_x_at) / Fold change /veh SOX15 (11748057_x_at) / RFU CD79A (11719716_a_at) / Fold change /veh CD79A (11719716_a_at) / RFU HIST1H1D (11736915_at) / Fold change /veh HIST1H1D (11736915_at) / RFU CASKIN2 (11723855_a_at) / Fold change /veh CASKIN2 (11723855_a_at) / RFU LOC730098 (11760151_x_at) / Fold change /veh LOC730098 (11760151_x_at) / RFU OR4N2 (11742367_at) / Fold change /veh OR4N2 (11742367_at) / RFU PRRT2 (11749266_a_at) / Fold change /veh PRRT2 (11749266_a_at) / RFU SNX32 (11753110_a_at) / Fold change /veh SNX32 (11753110_a_at) / RFU CDHR5 (11726645_a_at) / Fold change /veh CDHR5 (11726645_a_at) / RFU RCAN1 (11760418_a_at) / Fold change /veh RCAN1 (11760418_a_at) / RFU FAM167A (11723789_a_at) / Fold change /veh FAM167A (11723789_a_at) / RFU FAM26E (11764081_at) / Fold change /veh FAM26E (11764081_at) / RFU ISYNA1 (11749810_s_at) / Fold change /veh ISYNA1 (11749810_s_at) / RFU ACY1 (11761880_at) / Fold change /veh ACY1 (11761880_at) / RFU 11764098_at / Fold change /veh 11764098_at / RFU SAMD14 (11745864_x_at) / Fold change /veh SAMD14 (11745864_x_at) / RFU NPB (11741838_a_at) / Fold change /veh NPB (11741838_a_at) / RFU TMPRSS6 (11731388_a_at) / Fold change /veh TMPRSS6 (11731388_a_at) / RFU KRTAP10-2 (11738614_at) / Fold change /veh KRTAP10-2 (11738614_at) / RFU ARHGAP8 /// PRR5-ARHGAP8 (11727945_x_at) / Fold change /veh ARHGAP8 /// PRR5-ARHGAP8 (11727945_x_at) / RFU KRTAP5-7 /// NADSYN1 (11734609_at) / Fold change /veh KRTAP5-7 /// NADSYN1 (11734609_at) / RFU RASL12 (11751679_a_at) / Fold change /veh RASL12 (11751679_a_at) / RFU CDKN2B (11736163_a_at) / Fold change /veh CDKN2B (11736163_a_at) / RFU PRF1 (11729649_at) / Fold change /veh PRF1 (11729649_at) / RFU, ZNF638 /// ZNF638-IT1 / Fold change vs veh, ZNF638 /// ZNF638-IT1 / RFU, PANK3 / Fold change vs veh, PANK3 / RFU, SH3YL1 / Fold change vs veh, SH3YL1 / RFU, ZEB2 / Fold change vs veh, ZEB2 / RFU, NRIP1 / Fold change vs veh, NRIP1 / RFU, PTTG1IP / Fold change vs veh, PTTG1IP / RFU, CAPN2 / Fold change vs veh, CAPN2 / RFU, MED14 / Fold change vs veh, MED14 / RFU, SNORA58 / Fold change vs veh, SNORA58 / RFU, C1orf63 / Fold change vs veh, C1orf63 / RFU, LRRFIP1 / Fold change vs veh, LRRFIP1 / RFU, NDUFAF7 / Fold change vs veh, NDUFAF7 / RFU, SLC12A2 / Fold change vs veh, SLC12A2 / RFU, IBTK / Fold change vs veh, IBTK / RFU, ESF1 / Fold change vs veh, ESF1 / Fold change vs veh, TMEM50B / RFU, TAOK1 / Fold change vs veh, TAOK1 / RFU, ACBD3 / Fold change vs veh, ACBD3 / RFU, TMA16 / Fold change vs veh, TMA16 / RFU, RWDD3 / Fold change vs veh, RWDD3 / RFU, BCAT1 / Fold change vs veh, BCAT1 / RFU, EDEM3 / Fold change vs veh, EDEM3 / RFU, TMEM33 / Fold change vs veh, TMEM33 / RFU, WDR75 / Fold change vs veh, WDR75 / RFU, AHCTF1 / Fold change vs veh, AHCTF1 / RFU, TFRC / Fold change vs veh, TFRC / RFU, ZDHHC17 / Fold change vs veh, ZDHHC17 / RFU, NOM1 / Fold change vs veh, NOM1 / RFU, ARL8B / Fold change vs veh, ARL8B / RFU, ZBTB11 / Fold change vs veh, ZBTB11 / RFU, TAMM41 / Fold change vs veh, TAMM41 / RFU, KIAA1704 /// LOC100996395 / Fold change vs veh, KIAA1704 /// LOC100996395 / RFU, ING1 / Fold change vs veh, ING1 / RFU, TRMT61B / Fold change vs veh, TRMT61B / RFU, FUBP3 / Fold change vs veh, FUBP3 / RFU, TP53 / Fold change vs veh, TP53 / RFU, TNKS2 / Fold change vs veh, TNKS2 / RFU, ZFP14 / Fold change vs veh, ZFP14 / RFU, ACTR2 / Fold change vs veh, ACTR2 / RFU, PPP3R1 / Fold change vs veh, PPP3R1 / RFU, PIK3R1 / Fold change vs veh, PIK3R1 / RFU, HNRNPA1 / Fold change vs veh, HNRNPA1 / RFU, RNF170 / Fold change vs veh, RNF170 / RFU, ZNF28 / Fold change vs veh, ZNF28 / RFU, RNGTT / Fold change vs veh, RNGTT / RFU, OGT / Fold change vs veh, OGT / RFU, BRD1 / Fold change vs veh, BRD1 / RFU, MARS / Fold change vs veh, MARS / RFU, ZNF655 / Fold change vs veh, ZNF655 / RFU, FAHD1 / Fold change vs veh, FAHD1 / RFU, BDP1 / Fold change vs veh, BDP1 / RFU, LRRCC1 / Fold change vs veh, LRRCC1 / RFU, ARID1A / Fold change vs veh, ARID1A / RFU, ZNF146 / Fold change vs veh, ZNF146 / RFU, ZNF330 / Fold change vs veh, ZNF330 / RFU, GPN3 / Fold change vs veh, GPN3 / RFU, C9orf123 / Fold change vs veh, C9orf123 / RFU, N4BP2L2 / Fold change vs veh, N4BP2L2 / RFU, ARFIP1 / Fold change vs veh, ARFIP1 / RFU, FAM179B / Fold change vs veh, FAM179B / RFU, BCL10 / Fold change vs veh, BCL10 / RFU, UHRF1BP1L / Fold change vs veh, UHRF1BP1L / RFU, BET1 / Fold change vs veh, BET1 / RFU, CNOT2 / Fold change vs veh, CNOT2 / RFU, ZNF268 / Fold change vs veh, ZNF268 / Fold change vs veh, ZNF507 / RFU, DGCR2 / Fold change vs veh, DGCR2 / RFU, WDSUB1 / Fold change vs veh, WDSUB1 / Fold change vs veh, HSP90B1 /// MIR3652 / RFU, ADSS / Fold change vs veh, ADSS / RFU, GK / Fold change vs veh, GK / RFU, ZNF148 / Fold change vs veh, ZNF148 / RFU, TAF9 / Fold change vs veh, TAF9 / RFU, SLC1A5 / Fold change vs veh, SLC1A5 / RFU, SLMO2 / Fold change vs veh, SLMO2 / RFU, ABCC4 / Fold change vs veh, ABCC4 / RFU, LOC101060439 /// RAP1B / Fold change vs veh, LOC101060439 /// RAP1B / RFU, RFX7 / Fold change vs veh, RFX7 / RFU, GTPBP10 / Fold change vs veh, GTPBP10 / RFU, CNEP1R1 / Fold change vs veh, CNEP1R1 / RFU, BIVM-ERCC5 /// ERCC5 / Fold change vs veh, BIVM-ERCC5 /// ERCC5 / RFU, ILF3 / Fold change vs veh, ILF3 / RFU 11762660_at / Fold change /veh 11762660_at / RFU VCAN (11757783_s_at) / Fold change /veh VCAN (11757783_s_at) / RFU DDX43 (11728927_at) / Fold change /veh DDX43 (11728927_at) / RFU KRT8 (11758188_x_at) / Fold change /veh KRT8 (11758188_x_at) / RFU NKD1 (11759106_at) / Fold change /veh NKD1 (11759106_at) / RFU SRD5A1 (11742802_a_at) / Fold change /veh SRD5A1 (11742802_a_at) / RFU TPSAB1 /// TPSB2 (11721975_s_at) / Fold change /veh TPSAB1 /// TPSB2 (11721975_s_at) / RFU GSTM3 (11746129_a_at) / Fold change /veh GSTM3 (11746129_a_at) / RFU IL23R (11737362_x_at) / Fold change /veh IL23R (11737362_x_at) / RFU TMEM51 (11727254_a_at) / Fold change /veh TMEM51 (11727254_a_at) / RFU PIWIL2 (11732686_x_at) / Fold change /veh PIWIL2 (11732686_x_at) / RFU ORM1 (11744905_x_at) / Fold change /veh ORM1 (11744905_x_at) / RFU CCDC152 (11743942_at) / Fold change /veh CCDC152 (11743942_at) / RFU ECM1 (11717891_a_at) / Fold change /veh ECM1 (11717891_a_at) / RFU IL23R (11748794_a_at) / Fold change /veh IL23R (11748794_a_at) / RFU TNFAIP8L3 (11732012_x_at) / Fold change /veh TNFAIP8L3 (11732012_x_at) / RFU MBOAT4 (11741988_at) / Fold change /veh MBOAT4 (11741988_at) / RFU 11764193_at / Fold change /veh 11764193_at / RFU TMEM53 (11763286_at) / Fold change /veh TMEM53 (11763286_at) / RFU MAGEB2 (11727129_at) / Fold change /veh MAGEB2 (11727129_at) / RFU TMEM200A (11744735_a_at) / Fold change /veh TMEM200A (11744735_a_at) / RFU CCDC152 (11751479_a_at) / Fold change /veh CCDC152 (11751479_a_at) / RFU FAM211A (11726209_a_at) / Fold change /veh FAM211A (11726209_a_at) / RFU RGS16 (11746705_a_at) / Fold change /veh RGS16 (11746705_a_at) / RFU VCAN (11755009_s_at) / Fold change /veh VCAN (11755009_s_at) / RFU RHOB (11743442_s_at) / Fold change /veh RHOB (11743442_s_at) / RFU RGS16 (11720943_a_at) / Fold change /veh RGS16 (11720943_a_at) / RFU RGS16 (11720944_at) / Fold change /veh RGS16 (11720944_at) / RFU, VPS4B / Fold change vs veh, VPS4B / RFU, CREB1 / Fold change vs veh, CREB1 / RFU, DNAJC13 / Fold change vs veh, DNAJC13 / RFU, GNAQ / Fold change vs veh, GNAQ / RFU, CDK5R1 / Fold change vs veh, CDK5R1 / RFU, ZRANB3 / Fold change vs veh, ZRANB3 / RFU, CUL4A / Fold change vs veh, CUL4A / RFU, CCNY / Fold change vs veh, CCNY / RFU, UFL1 / Fold change vs veh, UFL1 / RFU, COG3 / Fold change vs veh, COG3 / RFU, DIAPH2 / Fold change vs veh, DIAPH2 / RFU, SKA2 / Fold change vs veh, SKA2 / RFU, AFF3 / Fold change vs veh, AFF3 / RFU, LMF1 / Fold change vs veh, LMF1 / RFU, IPO11 / Fold change vs veh, IPO11 / RFU, DFFB / Fold change vs veh, DFFB / RFU, FOXP1 / Fold change vs veh, FOXP1 / RFU, CARD8 / Fold change vs veh, CARD8 / RFU, STRN3 / Fold change vs veh, STRN3 / RFU, ADK / Fold change vs veh, ADK / RFU, RASSF2 / Fold change vs veh, RASSF2 / RFU, WIPF1 / Fold change vs veh, WIPF1 / RFU, LARP1B / Fold change vs veh, LARP1B / RFU, RASA1 / Fold change vs veh, RASA1 / RFU, RB1 / Fold change vs veh, RB1 / RFU, PPFIA1 / Fold change vs veh, PPFIA1 / RFU, MAT2A / Fold change vs veh, MAT2A / RFU, CCT5 / Fold change vs veh, CCT5 / RFU, WDR92 / Fold change vs veh, WDR92 / RFU, CUX1 / Fold change vs veh, CUX1 / RFU, TTC7A / Fold change vs veh, TTC7A / RFU, TMEM135 / Fold change vs veh, TMEM135 / RFU, DEPTOR / Fold change vs veh, DEPTOR / RFU, CPM / Fold change vs veh, CPM / RFU, DNAJB6 / Fold change vs veh, DNAJB6 / RFU, CACNA2D3 / Fold change vs veh, CACNA2D3 / RFU, DTX4 / Fold change vs veh, DTX4 / RFU, TFCP2 / Fold change vs veh, TFCP2 / RFU, GMCL1 /// GMCL1P1 / Fold change vs veh, GMCL1 /// GMCL1P1 / RFU, AEBP2 / Fold change vs veh, AEBP2 / RFU, SNHG1 /// SNORD22 /// SNORD25 /// SNORD26 /// SNORD27 /// SNORD28 /// SNORD29 /// SNORD31 / Fold change vs veh, SNHG1 /// SNORD22 /// SNORD25 /// SNORD26 /// SNORD27 /// SNORD28 /// SNORD29 /// SNORD31 / Fold change (Aza/veh), C12orf56 (ProbeSet 11735607_a_at) / Fold change (ACY-1035/veh), C12orf56 (ProbeSet 11735607_a_at) / Fold change (Aza/veh), FGFR1OP (ProbeSet 11751329_s_at) / Fold change (ACY-1035/veh), FGFR1OP (ProbeSet 11751329_s_at) / Fold change (Aza/veh), VPS36 (ProbeSet 11739960_a_at) / Fold change (ACY-1035/veh), VPS36 (ProbeSet 11739960_a_at) / RFU SYPL1 (11715823_x_at) / Fold change /veh SYPL1 (11715823_x_at) / RFU IGFBP7 (11715501_s_at) / Fold change /veh IGFBP7 (11715501_s_at) / RFU REEP3 (11722064_at) / Fold change /veh REEP3 (11722064_at) / RFU IGLL1 (11728026_x_at) / Fold change /veh IGLL1 (11728026_x_at): dose or concentration left out as unconfirmed
Settings: ProbeSet 11753623_s_at; LIST D

Structure (SMILES): Nc1ccc(-c2cccs2)cc1NC(=O)c1ccc2c(c1)cc(C1CC1)n2CCN1CCOCC1 [ACY-1035]
- RFU, LOC101060439 /// RAP1B: 312.98 RFU
